Data: patent US20090233917A1, “Stroke recovery” (priority 2006, published 2009)

System: embolic middle cerebral artery occlusion (MCAO) in rats
Test: Functional recovery following embolic MCAO in rats (Example 13)
Assay type: in vivo, Wistar rats
Conditions: for foot fault test, compared to EPO treatment group: 10 h treatment group
Source text: The purpose of this study was to evaluate the efficacy of arimoclomol in enhancing neurological recovery in a model of embolic middle cerebral artery occlusion (MCAO) in rats (Zhang R L et al. Brain Research 766:83-92, 1997). The embolic MCAO model emulates the damage caused by an embolic stroke which is generally the result of ischemia associated damage or diseases. The embolic MCAO model also closely models the types of damage caused by a stroke because the occlusion is not permanent. Moreover, the embolus often undergoes spontaneous clot lysis and reperfusion within 24-48 hours post-stroke, which is similar to a subset of human stroke. Damage from a stroke can be brought about in two ways. […] Second, the resulting pressure from the initial surge in blood volume once the occlusion is cleared can also result in further neurological damage and damage to the effected blood vessel. This embolic stroke model provides guidance for the neurological recovery resulting from each of these phenomena.
Sixty male Wistar rats between 8-12 weeks of age were operated on to isolate the external carotid artery (ECA) and the internal carotid artery (ICA). A single clot was introduced into the ECA lumen through a PE-50 catheter (0.3 mm outer diameter) attached to a 100 μL Hamilton syringe filled with 0.9% saline via a small puncture. A 16 mm length of the PE-50 catheter was advanced from the ECA into the lumen of the ICA. Subsequently, the clot was injected into the ICA with 2-3 μL of 0.9% saline. The catheter was withdrawn and the right ECA ligated.
The rats were then randomly divided into 6 groups of 10 animals each. To the control group, phosphate buffered saline (PBS) was administered, p.o., starting at six hours after embolic stroke for 28 consecutive days. To the second group, Erythropoitein (EPO) was administered, i.p., starting at 24 hours after embolic stroke for 7 consecutive days (41.7 μg/kg/d). To the third group, arimoclomol was administered daily p.o. (200 mg/kg/d), starting 6 hours after embolic stroke for 28 consecutive days. To the fourth group, arimoclomol was administered daily p.o. (200 mg/kg/d), starting 10 hours after embolic stroke for 28 consecutive days. To the fifth group, arimoclomol was administered p.o. (200 mg/kg/d), starting 24 hours after embolic stroke for 28 consecutive days. To the sixth group, arimoclomol was administered p.o. (200 mg/kg/d), starting 48 hours after embolic stroke for 28 consecutive days.
Animals were evaluated at 1, 3, 7, 14, 21, and 28 days after initiation of embolic stroke by a modified neurological severity score (mNSS) and adhesive-removal and foot fault tests. These tests are widely accepted as standard tests indicative of functional recovery after a stroke. (Chen et al., Ann Neurol 53: 743-751, 2003; Wang et al., Stroke 35: 1732-1737, 2004; Zhang et al, Circulation 3486-3494, 2005).
For the modified neurological severity score (mNSS), the severity of injury was graded on a scale of 0 to 18. This score was determined via the evaluation of a variety of motor tests, sensory tests, balance beam tests and reflex tests as illustrated in Table II below. To determine the score resulting from these tests, one point was awarded for the inability to perform any of the tests or for the lack of a tested reflex. Accordingly, the higher the score, the more severe the injury. (Chen et al., Ann Neurol 53: 743-751, 2003; Wang et al., Stroke 35: 1732-1737, 2004; Zhang et al, Circulation 3486-3494, 2005).
For the adhesive removal test, the rats are trained prior to embolic stroke to remove strips of packing tape (5 cm). The training period constitutes of 3 sessions. Each session consists of 6 bilateral stimulation trials conducted over 2 days wherein the 5 cm strips of packing tape were placed firmly around both wrists of the animal so that they covered the hairless part of the forepaw. […]

[1] = 6 h, 10 h, and 24 h treatment groups, on and after the 14-day time point

Q: Which “adhesive-removal test, recovery compared to control group” value (200 mg/kg/d p.o., start 6 h, 10 h, 24 h and 48 h after embolic stroke, after the 14 day time point) does the source give for `[O-][n+]1cccc(/C(Cl)=N/OC[C@H](O)CN2CCCCC2)c1` [arimoclomol, N-[2-hydroxy-3-(1-piperidinyl)propoxy]-pyridine-1-oxide-3-carboximidoyl chloride] here?
A: significantly superior

Q: And the “foot fault test, recovery compared to control groups” value [1]?
A: significantly superior

Q: What about the “mNSS test, recovery compared to control groups” value [1] of the same compound?
A: significantly greater

Q: And the “infarct volume compared to control groups” value (6 h and 10 h treatment groups, after 28 days of treatment)?
A: significantly lower percentage of infarct volume

Q: And the “foot fault test, compared to EPO treatment group” value (21-day time point)?
A: significantly superior

Q: What about the “foot fault test, compared to EPO treatment group” value (28-day time point) of the same compound?
A: slightly superior

Q: And the “adhesive-removal test, improvement percentage compared to control” value (day 28, each time group (6, 10, 24, 48 h))?
A: greater than 25%
